Literature values as cited in article PMC9533837 (Antiviral Research, 2003).

Tested on: DNA polymerase of CMV versus human DNA polymerase α
Conditions: cited from earlier work

## Nc1ccn(CC(CO)OCP(=O)(O)OP(=O)(O)OP(=O)(O)O)c(=O)n1 (stereo not shown) [Cidofovir diphosphate, cidofovir 5′-diphosphate]
  lower concentration inhibiting DNA polymerase of CMV than human DNA polymerase α: 10 fold
